For one assay, the system named is A549 lung cancer cells. Kind of assay: Cell viability assay (MTT), dark and blue light. It is filed as cell-based, Human. Put shortly: (§1)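 After overnight attachment, cells received the complexes for 72 h; a parallel set was irradiated for 10 min at 8 h and kept dark thereafter. MTT formazan was quantified at 570 nm.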
Assay [1] has as its system MiaPaCa2 pancreas cancer cells. The assay can be described thus: Cell viability assay (MTT), dark and blue light. Format: cell-based, Human. Put shortly: as §1
For assay [2], the system named is PC-3 prostate cancer cells (PSMA-negative). Kind of assay: Cell viability assay (MTT), dark and blue light. Format: cell-based, Human. Particulars: for Photosensitizing index (PI): PC3, dark vs blue light. Put shortly: (§2)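 Cells seeded 5,000–10,000/well, treated in 0.1% (v/v) DMSO either 72 h in dark or 8 h dark, 10 min 458 nm blue LED irradiation (9.6 W), then dark to 72 h. Viability by MTT, absorbance 570 nm; at least three independent experiments in triplicate.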

A further assay relates to MCF7 breast cancer cells. Kind of assay: Cell viability assay (MTT), dark and blue light. It is filed as cell-based, Human. Put shortly:
(§3)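 Readout after 72 h: MTT reduction at 570 nm. Light condition: 8 h dark loading, 10 min irradiation at 458 nm (LEDs, 9.6 W), dark to 72 h; control condition kept dark for the full 72 h.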

The nature of assay [3]: Singlet oxygen (1O2) production, ABDA indicator, blue LED 458 nm. To be noted: for consumption of ABDA (1O2 production): 4.5 mWcm^−2; for depletion of the ABDA absorbance at 380 nm (1O2 production): 4.5 mWcm^−2, 5-45 min, PBS pH 7.4. How it is done: The detection of […] generation of iridium complexes was measured with 9,10-anthracenediyl-bis(methylene)dimalonic acid (ABDA) as an ^1O2 indicator and Ru(bpy)3Cl2 as a standard according to a modified reported method. Experiments were conducted using ABDA (50 μM) in phosphate buffered solution (PBS, pH 7.4), the respective iridium complex, i.e. (I-e), (I-g), (I-h), (I-j), (II-e), (II-g), (II-h), (II-j), (III-i), (III-j), (III-k), (III-h), (IV-i), (IV-j), (IV-k), (IV-h) and Ru(bpy)3Cl2 (5 μM) in a mixture of H2O/CH3CN (50/50) with a ratio ABDA/complex of […] and a final volume of 3 mL. ABDA oxidation was monitored by UV-vis spectrophotometry. The samples were irradiated with a blue custom-made LED plate (458 nm, 4.5 mWcm^−2). During irradiation UV-vis absorption spectra were recorded at 5, 10, 15, 20, 30 and 45 min. The ^1O2 generation was followed by monitoring the absorption spectral change at 380 nm of ABDA versus time.

Assay [4] relates to DU-145 prostate cancer cells (PSMA-negative). The assay can be described thus: Cell viability assay (MTT), dark and blue light. Format: cell-based, Human. Particulars: for Photosensitizing index (PI): DU145, dark vs blue light. The gist of the method: as §2
In assay [5] the test system is Scaber bladder cancer cells. Kind of assay: Cell viability assay (MTT), dark and blue light. Format: cell-based, Human. The gist of the method:
as §3

Where [6] appears, read: PC3, blue light, read-out: GI50.
[7] abbreviates: in the dark, 72 h, read-out: GI50 PC-3 Dark.
Where [8] appears, read: 8 h in the dark, blue light 458 nm 10 min, then dark up to 72 h, read-out: GI50 DU145 Blue.
Where [9] appears, read: DU145, blue light, read-out: GI50.
Where [10] appears, read: in the dark, 72 h, read-out: GI50 DU145 Dark.

“And” between values parts separate entries of the source, which are not always exact repeats. Equal entries are not always repeated. Where two headings read alike, the source gives them in different places. Where only a bound is given, the exact number is not on record here.

Here are results for 4 molecules from patent publication US20260209260A1, “VECTORIZED NHC IRIDIUM(III) COMPLEXES AND USE THEREOF IN PHOTODYNAMIC THERAPY AND/OR DIAGNOSTIC” (CENTRE NATIONAL DE LA RECHERCHE SCIENTIFIQUE, priority 2022, published 2026).

In the case of `F[P-](F)(F)(F)(F)F.O=C(NCCCn1cc[n+]2[c]1[Ir-3]13([c]4c(sc5ccccc45)-c4cccc[n+]41)([c]1c(sc4ccccc14)-c1cccc[n+]13)[n+]1ccccc1-2)[c-]1cccc1.[Fe+2].c1cc[cH-]c1` [IV-j], the GI50 (in general, the concentration at which growth is held to half of that of the control) in the assay with A549 lung cancer cells (A549, blue light, read-out: GI50) is 0.37 µM; in the assay on A549 lung cancer cells (A549, dark, read-out: GI50), 6.5 µM; in assay [2] (PC3, dark, read-out: GI50) it was 7.3 µM; in the assay on MCF7 breast cancer cells (MCF7, blue light, read-out: GI50) it was 0.72 µM and 0.42 µM; in the assay on MCF7 breast cancer cells (MCF7, dark, read-out: GI50), 6.6 µM. Further, the “SI (vs MC3T3)” value is reported as 2.5 in the assay on A549 lung cancer cells (A549, dark); 24.4 in assay [1] (MiapaCa2, blue light); 4.7 in assay [1] (MiapaCa2, dark); 2.2 in assay [2] (PC3, dark). The “SI (vs NIH-3T3)” value with A549 lung cancer cells (A549, dark) is listed as 9.7; in assay [1] (MiapaCa2, dark), 17.9; in the assay with MCF7 breast cancer cells (MCF7, dark) it was 9.5. Further, the “Photosensitizing index (PI)” value with A549 lung cancer cells (A549, dark vs blue light) was 17.6; in assay [1] (MiaPaCa2, dark vs blue light) it was 21.9; in assay [2], 121.7; in the assay with MCF7 breast cancer cells (MCF7, dark vs blue light) it was 15.7. The “consumption of ABDA (1O2 production)” value in assay [3] is on record as “fast complete consumption of ABDA”. Also, in assay [3], the “depletion of the ABDA absorbance at 380 nm (1O2 production)” value (from here on “depletion of the ABDA absorbance”) was “fast depletion of the ABDA absorbance at 380 nm”.
Take `F[P-](F)(F)(F)(F)F.O=C(O)CC[C@H](NC(=O)N[C@@H](CCCCNC(=O)CCn1cc[n+]2[c]1[Ir-3]13([c]4c(sc5ccccc45)-c4cccc[n+]41)([c]1c(sc4ccccc14)-c1cccc[n+]13)[n+]1ccccc1-2)C(=O)O)C(=O)O` [III-j]: the GI50 came to 1.94 µM in assay [2] (setting [6]); 58.2 µM in assay [2] (PC3, dark, read-out: GI50); 58.2 µM in assay [2] (setting [7]); 1.4 µM in assay [4] (setting [8]); 1.35 µM in assay [4] (setting [9]); 205 µM in assay [4] (DU145, dark, read-out: GI50). For the same molecule, the GI50 in assay [4] (setting [10]) was determined as 205 µM. Further, the “Photosensitizing index (PI)” value was 30.0 in assay [2] and 151.9 in assay [4]. Also, the “SI (vs MC3T3) PC-3 Blue” value in assay [2] (blue light 458 nm) stood at 6.6. Further, in assay [2] (dark), the “SI (vs MC3T3) PC-3 Dark” value is listed as over 4.3. Also, in assay [2] (dark), the “SI (vs NIH-3T3) PC-3 Dark” value is over 1.7. Besides, in assay [4] (blue light 458 nm), the “SI (vs MC3T3) DU145 Blue” value is 9.3. For the same molecule, the “SI (vs NIH-3T3) DU145 Blue” value in assay [4] (blue light 458 nm) is 8.0. In assay [4] (dark), the “SI (vs MC3T3) DU145 Dark” value is reported as over 1.2. Besides, the “consumption of ABDA (1O2 production)” value in assay [3] was “fast complete consumption of ABDA”. Further, the “depletion of the ABDA absorbance” value in assay [3] is on record as “fast depletion of the ABDA absorbance at 380 nm”.
On to `F[P-](F)(F)(F)(F)F.O=C(O)CC[C@H](NC(=O)N[C@@H](CCCCNC(=O)CCn1cc[n+]2[c]1[Ir-3]13([c]4ccccc4-c4c5ccccc5cc[n+]41)([c]1ccccc1-c1c4ccccc4cc[n+]13)[n+]1ccccc1-2)C(=O)O)C(=O)O` [III-h], for which the GI50 in assay [2] (8 h in the dark, blue light 458 nm 10 min, then dark up to 72 h, read-out: GI50 PC-3 Blue) was 0.68 µM; in assay [2] (setting [6]), 0.68 µM; in assay [2] (PC3, dark, read-out: GI50) it was 21.2 µM; in assay [2] (setting [7]), 21.2 µM; in assay [4] (setting [8]), 1.41 µM; in assay [4] (setting [9]), 1.41 µM. Also, the GI50 in assay [4] (DU145, dark, read-out: GI50) stood at 26.1 µM; in assay [4] (setting [10]) it was 26.1 µM. The results for the “Photosensitizing index (PI)” value in assay [2] and in assay [4] were 31.2 and 18.5, respectively. For the same molecule, the “SI (vs MC3T3) PC-3 Blue” value in assay [2] (blue light 458 nm) is recorded as 12.2. Besides, the “SI (vs NIH-3T3) PC-3 Blue” value in assay [2] (blue light 458 nm) is recorded as 28.0. In addition, in assay [4] (blue light 458 nm), the “SI (vs MC3T3) DU145 Blue” value is listed as 5.9. The “SI (vs MC3T3) DU145 Dark” value in assay [4] (dark) is listed as 2.0. Moreover, the “SI (vs NIH-3T3) DU145 Dark” value in assay [4] (dark) is on record as over 3.8. For the same molecule, in assay [3], the “depletion of the ABDA absorbance” value is “fast depletion of the ABDA absorbance at 380 nm”.
As to `F[P-](F)(F)(F)(F)F.O=C(CCCC[C@@H]1SC[C@@H]2NC(=O)N[C@@H]21)NCCCn1cc[n+]2[c]1[Ir-3]13([c]4ccccc4-c4c5ccccc5cc[n+]41)([c]1ccccc1-c1c4ccccc4cc[n+]13)[n+]1ccccc1-2` [I-h], the GI50 in the assay with A549 lung cancer cells (8 h in the dark, blue light 458 nm 10 min, then dark up to 72 h, read-out: GI50 A549 Blue) was 0.8 µM and 0.6 µM; in the assay on A549 lung cancer cells (in the dark, 72 h, read-out: GI50 A549 Dark), 13.1 µM; in assay [5] (8 h in the dark, blue light 458 nm 10 min, then dark up to 72 h, read-out: GI50 Scaber Blue), 1 µM; in assay [5] (in the dark, 72 h, read-out: GI50 Scaber Dark), 24.8 µM; with MCF7 breast cancer cells (8 h in the dark, blue light 458 nm 10 min, then dark up to 72 h, read-out: GI50 MCF7 Blue), 0.99 µM; in the assay on MCF7 breast cancer cells (in the dark, 72 h, read-out: GI50 MCF7 Dark), 11.9 µM. Besides, the “SI (vs MC3T3) A549 Dark” value in the assay on A549 lung cancer cells (dark) stood at 3.2. Moreover, the “Photosensitizing index (PI) A549” value in the assay on A549 lung cancer cells (dark vs blue light 458 nm) was determined as 21.8. The “SI (vs NIH-3T3) Scaber Blue” value in assay [5] (blue light 458 nm) worked out at 10.4. Moreover, in assay [5] (dark), the “SI (vs MC3T3) Scaber Dark” value was found to be 1.7. Also, the “SI (vs NIH-3T3) Scaber Dark” value in assay [5] (dark) is on record as 4.1. Besides, the “Photosensitizing index (PI) Scaber” value in assay [5] (dark vs blue light 458 nm) was 24.8. Moreover, in the assay with MCF7 breast cancer cells (dark), the “SI (vs NIH-3T3) MCF7 Dark” value is 8.6. The “Photosensitizing index (PI) MCF7” value in the assay on MCF7 breast cancer cells (dark vs blue light 458 nm) was 12.0.
